Experimental data from patent EP0398925B1, “GROWTH INHIBITING AGENT AND THE USE THEREOF” (CHILDREN'S HOSPITAL CORPORATION, priority 1988, dated 1989).

Columns and labels:
rabbit cornea [1] = test: Rabbit corneal test, endotoxin implant, test substance applied topically as eye drops; format: in vivo; details: eye drops in saline; 9th day; hydrocortisone 0.5 mg/ml, β-CD-TDS 1.0 mg/ml (combination uses hydrocortisone-21-phosphate)
Description: The rabbit corneal test described by Perlin, Fed. Proc. 36:101 (1977) modified as described below, was employed to examine the effectiveness of a combination of β-CD-TDS and hydrocortisone In this corneal test, a sustained release polymer impregnated with bacterial endotoxin was first implanted in rabbit corneas. Endotoxin slowly released from this implant induces angiogenesis in the cornea in a manner analogous to the neovascularization observed in patients rejecting a corneal transplant. Rather than employing a second implant containing the test substance to deliver such test substance as generally used, in the present experiments the test substance was applied topically to the cornea, i.e., in the form of eye drops. Animals having received an endotoxin-containing implant were divided into four groups and were treated by topical application (eye drops) as follows: Group 1, was not treated further and served as the control group; Group 2, received hydrocortisone alone (0.5 mg/ml); Group 3, hydrocortisone-21-phosphate and β-CD-TDS, (0.5 mg/ml and 1.0 mg/ml, respectively); and Group 4, β-CD-TDS (1.0 mg/ml). The diluent for the eye drops was saline in all cases. FIG. 3 (A-D) illustrates the results typically obtained on the 9th day post-implantation and treatment.

[2] = tested on: chorioallantoic membrane of the chick embryo; test: CAM assay: avascular zone around a methylcellulose disc holding the test substance; format: in vivo; details: for angiogenesis-inhibition: 100 µg of cyclodextrin with 50 µg of hydrocortisone, no successes at (+) or (++) level; for angiogenesis suppression activity: unmodified CDs with hydrocortisone (Examples 18-20)
Description: A more economic bioassay makes use of the chorioallantoic membrane of the chick embryo. This test will for convenience be referred to hereinafter as the "CAM assay". For a more detailed description of the CAM assay, see Folkman et al., Science 221:719 (1983). A typical CAM assay, such as used for the evaluations in the examples in Section 7, infra, employs 16 eggs per experiment. A 2 mm diameter disk of methylcellulose containing the test substance is applied to the chorioallantoic membrane of a 6-day chick embryo, cultured in a Petri dish, in a humidified incubator with 3% carbon dioxide. Two days later (8-day embryo), the membrane is examined under a stereomicroscope at six- to ten-fold magnification. Inhibition of angiogenesis by the test substance is evidenced by the development of an avascular zone around the methylcellulose disc. An avascular zone of 4 mm is graded as (++) and an avascular zone of 2 mm is graded as (+). […] A rating of zero % reflects absence of inhibition or the test substance under the test conditions.
The sustained release methylcellulose discs are prepared by dispersing appropriate amount(s) of the test substance of substances in an 0.45% aqueous solution of methylcellulose, and depositing 10 microliter aliquots of the resulting solution in a Teflon mold, followed by air drying for about one hour in a laminar flow hood.

[3] = Solubility in liquid water at zero °C; format: physicochemical
Description: The CD derivatives useful in the present invention are highly hydrophilic and therefore very water soluble. Without wishing to be bound by theory, we believe that a highly hydrophilic character is important to allow interaction with cellular surfaces. We also believe a very high water solubility of the derivative is an important factor which cooperatively interacts with the inherent complexing ability of the CD structure to provide effective inhibition of angiogenesis with an exogenous steroid, as provided by this invention. We believe that the hydrophlilic activity is roughly indicated by the affinity to water, as measured by water solubility. It is important to measure the same at 0°C since at higher temperatures the most suitable derivative have solubilities so high that meaningful measurements are difficult. […] All solubility measurements referred to herein relate to the solubility of the substantially anhydrous derivatives, and when these are salts, to the anhydrous sodium form. […] In order to make comparisons that included the very water-soluble CD sulfates, the solubilities of which were so high at room temperature that measurement was not practical, all solubility measurements were made in liquid water at zero °C. One can picture this to be a measure of the competition of the hydrophile bonding with water in relation to the orderly bonding of water to itself.

calf aortic SMC = test: Suppression of smooth muscle cell growth in tissue culture; format: cell-based; details: each used alone, 0.03 µg/ml up to 400 µg/ml
Description: (§1) The bioassay of this activity was made using tissue cultures of rat aortic SMC and calf aortic SMC, with dosages ranging from 0.03 µg/ml up to 400 µg/ml.

rat aortic SMC = test: as above; format: cell-based; details: each used alone, 0.03 µg/ml up to 400 µg/ml
Description: as §1

rabbit cornea [4] = test: Rabbit cornea test, endotoxin Elvax implant, test substance given in a second Elvax implant; format: in vivo; details: day 13, Elvax pellet with β-CD-TDS 15 µg/mm³ and/or cortexolone 30 µg/mm³, over 100% = stimulation; for Vessel Density, Inhibition (% of Untreated Control Group): length-density index
Description: In another series of experiments, the antiangiogenic activity of a water-soluble cyclodextrin salt derivative in combination with cortexolone was evaluated using the rabbit cornea test as described by Gimbrone et al., J. Nat'l Cancer Inst. 52:413 (1974). In these experiments, E. coli endotoxin (17 µg/mm³) incorporated into sustained release polymer pellets of ethylene vinylacetate copolymer [Elvax, Sigma Chemical, St. Louis, MO (hereinafter "Elvax")] was implanted between the vascular limbal edge of the rabbit corneas. The test substance(s) were administered by means of a second Elvax implant incorporating the particular test substance.
Elvax containing endotoxin was implanted into the corneas of 12 rabbits. The animals were then divided into 4 groups and 4 eyes were treated for each group as follows: Group 1, received no further treatment and served as the control group; Group 2, β-CD-TDS at 15 µg/mm³ Elvax pellet; Group 3, cortexolone at 30 µg/mm³ Elvax pellet; and Group 4, a combination of β-CD-TDS and cortexolone incorporated into an Elvax pellat at a final concentration of 15 µg/mm³ Elvax of β-CD-TDS and 30 µg/mm³ Elvax of cortexolone. The vessel length of new capillary growth was measured every 2 days with a slit-lamp stereoscope at 10X using an ocular grid calibrated to ± 0.1 mm.
Thus, the vessel density was also evaluated and graded using the following scale: O=no vessels/cornea; 1=1-4 vessels/cornea; 2=5-20 vessels/cornea; 3=20-50 vessels/cornea; and 4=more than 50 vessels/cornea. This grade was then multiplied by mean maximal length of the vessels to obtain a semi-quantitative estimate of vessel density (length-density index) for each cornea.

[5] = 25 µg/10 µl of β-CD-TDS with Cortexolone 50 µl/10 µl
[6] = compound 25 µg/10 µl with 50 µg to 60 µg of hydrocortisone in 10 µl of 0.45% methylcellulose
[7] = compound 100 µg/10 µl with 50 µg to 60 µg of hydrocortisone in 10 µl of 0.45% methylcellulose

Molecule: C[C@]12CCC(=O)C=C1CC[C@@H]1[C@@H]2[C@@H](O)C[C@@]2(C)[C@H]1CC[C@]2(O)C(=O)CO [hydrocortisone, 11 beta, 17 alpha, 21-trihydroxypregn-4-ene-3,20-dione]
- effect on endotoxin-induced angiogenesis in the cornea (rabbit cornea [1]): only a slight inhibition of angiogenesis

Molecule: β-cyclodextrin tetradeca sulfate [β-CD-TDS]
- % Avascular zones [2, 5]: 85%
- % avascular zones (++) or greater [2, 5]: 31%
- % Avascular zones [2, 6]: 58± 7.0%
- % Avascular zones ([2]; compound 50 µg/10 µl with 50 µg to 60 µg of hydrocortisone in 10 µl of 0.45% methylcellulose): 75± 5.8%
- % Avascular zones [2, 7]: 55± 7.5%
- Solubility 0°C, g/100 ml H₂O [3]: 42 g/100 ml H₂O
- effectiveness relative to whole heparin in suppressing smooth muscle cell (SMC) growth (calf aortic SMC): about three
- effectiveness relative to whole heparin in suppressing smooth muscle cell (SMC) growth (rat aortic SMC): about three
- effect on endotoxin-induced angiogenesis in the cornea (rabbit cornea [1]): slight stimulation of angiogenesis

Molecule: O=C(O)[C@@H]1CCN1 [(a) L-2-Azetidine, L-2-azetidinecarboxylic acid]
- % Avascular zones ([2]; L-2-Azetidine 400 ug/10 µl, (a) 0 µg CD-TDS, (b) 25 µg CD-TDS): 28%

Molecule: OC[C@H]1O[C@@H]2O[C@H]3[C@H](O)[C@@H](O)[C@@H](O[C@H]4[C@H](O)[C@@H](O)[C@@H](O[C@H]5[C@H](O)[C@@H](O)[C@@H](O[C@H]6[C@H](O)[C@@H](O)[C@@H](O[C@H]7[C@H](O)[C@@H](O)[C@@H](O[C@H]8[C@H](O)[C@@H](O)[C@@H](O[C@H]1[C@H](O)[C@H]2O)O[C@@H]8CO)O[C@@H]7CO)O[C@@H]6CO)O[C@@H]5CO)O[C@@H]4CO)O[C@@H]3CO [β-CD, β-cyclodextrin]
- angiogenesis-inhibition [2]: total absence of angiogenesis-inhibition
- % Avascular zones [2, 6]: 0.04%
- % Avascular zones [2, 7]: 0%
- angiogenesis suppression activity [2]: no indication of angiogenesis suppression activity

Molecule: C[C@]12CCC(=O)C=C1CC[C@@H]1[C@@H]2CC[C@@]2(C)[C@H]1CC[C@]2(O)C(=O)CO [Cortexolone, 17 alpha, 21-dihydroxypregn-4-ene-3,20-dione]
- % Avascular zones ([2]; Cortexolone alone, 50 µl/10 µl): zero
- Vessel Length, Inhibition (% of Untreated Control Group) (rabbit cornea [4]): 49%
- Vessel Length, Inhibition (% of Untreated Control Group) (rabbit cornea [4]; listed as cortexolone): about 49%
- Vessel Density, Inhibition (% of Untreated Control Group) (rabbit cornea [4]): 61%
- Vessel Density, Inhibition (% of Untreated Control Group) (rabbit cornea [4]; listed as cortexolone): about 61%

Molecule: γ-cyclodextrin [γ-CD]
- angiogenesis-inhibition [2]: total absence of angiogenesis-inhibition
- % Avascular zones [2, 7]: 0%
- angiogenesis suppression activity [2]: no indication of angiogenesis suppression activity

Molecule: α-cyclodextrin [α-CD]
- angiogenesis-inhibition [2]: total absence of angiogenesis-inhibition
- % Avascular zones [2, 6]: 0%
- % Avascular zones [2, 7]: 5± 0.3%
- angiogenesis suppression activity [2]: no indication of angiogenesis suppression activity
- Solubility 0°C, g/100 ml H₂O [3]: 6 g/100 ml H₂O
